According to US12624096B2, “Anti-tau antibodies and methods of use thereof” (GTInvent Limited, priority 2020, dated 2026):

Experiments:
[1] = target: dGAE aggregates (Homo sapiens, UniProt P10636); assay: Epitope occlusion sandwich ELISA (423 mAb capture) of dGAE aggregated with/without LMTM; format: binding; details: LMTM 1:5 ratio
Description: During dGAE aggregation in vitro, scAb binding regions on dGA/dGAE are ‘hidden’ or ‘occluded’ which leads to a loss of immunoreactivity in aggregation samples. Here we have shown the occlusion of binding regions in aggregated dGAE samples and the recovery of immunoreactivity in the presence of LMTM, a tau-aggregation inhibitor. For preparing the aggregates, 10 μl 10 mM DTT was added to 1000 μl 100 μM dGAE and agitated with/without LMTM (1:5 ratio) at 700 rpm for 24 h at 37° C. […] The pellet was then resuspended in half the original volume for further experiments. […] Doubling dilutions of dGAE aggregate ‘total’, ‘supernatant’ and ‘pellet’ samples at 10 μg/ml starting concentration were added to designated wells in doubling dilutions in 1×PBS, dGAE monomer (non-aggregated) was included as assay control. All double dilutions were done in final volumes of 100 μl. This was left to incubate on lab bench for 1 h followed by the addition of test scAbs at 10 μg/ml. Anti-HuCk HRP labelled secondary antibody was added as described previously and ELISA data generated is represented using the graph below.

[2] = test system: plasma tau; assay: Plasma tau (Simoa) in L66+/- mice treated with LMTM; format: in vivo, mouse
Description: The effect of the tau aggregation inhibitor LMTM on the levels of plasma tau in a L66^+/− mouse line was investigated with two assays, both utilising the 3-step Simoa® protocols described above. Using the human specific NT1 assay (BT2 capture with Tau12 detection), low levels of tau (0.41±0.09 pg/ml) were detected in the plasma of 5-month-old L66^+/− that were treated with vehicle control solution (FIG. 50A). At the same time, an increase in tau levels was measured in the plasma of L66^+/− mice that had received an oral administration of LMTM (15 mg/kg) during the time period (1.28±0.11 pg/ml).
This hypothesis was supported by our core-proline antibody assay in which S1D12 antibody coated capture beads and BT2 detector was used (FIG. 50B). This assay detects both human and mouse tau which explains the higher levels of tau detected.

[3] = target: dGAE (Homo sapiens, UniProt P10636); assay: Thioflavin T dGAE aggregation inhibition assay; format: biochemical; details: 10 μM test protein; 100 μM dGAE, 10 mM DTT, 24 h
Description: By incubating 100 μM dGAE and 10 mM DTT at 37° C., on a thermomixer at 700 rpm for 24 hours, “pathology mimicking” aggregates which have the morphology of paired helical filaments are formed. This aggregation can be quantified by adding a final concentration of 12.5 μM Thioflavin T (fluorescent dye) which binds to fibril-like β-sheets. Fluorescence was measured with a constant emission wavelength of 480 nm and a scanning excitation wavelength of 350-470 nm using a Varian Cary Eclipse fluorescence spectrophotometer. Maximal fluorescence measurements were used as an indicator of dGAE aggregation (approximately 450 nm excitation). The assay was optimised using a range of S1D12 scAb concentrations (0.04 to 25 µM) and tested for levels of aggregation inhibition as shown in FIG. 35.
Based on FIG. 35, 10 μM scAb was deemed an adequate concentration to compare and rank individual scAb-mediated dGAE aggregation inhibition events. […] A similar inhibition (40%) was seen using 10 μM bovine serum albumin as a negative control (data not shown).

Sequence of dGAE (P10636 614-708): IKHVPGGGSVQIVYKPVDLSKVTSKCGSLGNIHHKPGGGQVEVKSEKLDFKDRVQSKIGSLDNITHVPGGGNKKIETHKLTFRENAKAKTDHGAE
Sequence of dGAE aggregates (P10636 614-708): as above

Row | Compound | effect of LMTM on dGAE aggregation and immunoreactivity [1] | plasma tau, NT1 assay (BT2 capture with Tau12 detection) ([2]; 5-month-old L66+/- mice, oral LMTM 15 mg/kg) | plasma tau, core-proline assay (S1D12 capture beads, BT2 detector) ([2]; L66+/- mice, LMTM 15 mg/kg) | inhibition of dGAE aggregation [3]
1 | CN(C)c1ccc2c(c1)Sc1cc(N(C)C)ccc1N2.CS(=O)(=O)O.CS(=O)(=O)O [LMTM] | preventing the aggregation event, leading to an increased immunoreactivity | 1.28 ± 0.11 pg/mL | 142.08 ± 12.08 pg/mL | 
2 | bovine serum albumin: negative control protein in thioflavin T assay [reference compound] |  |  |  | 40%
